Drawing on US20100137277A1, “PYRIDINE COMPOUNDS AND THEIR USE AS P2Y12 ANTAGONISTS” (ASTRAZENECA AB, priority 2007, published 2010), this text covers IC50 for three compounds.

SMILES strings stand for the structures.

T1 sequence (Q9H244 whole entry): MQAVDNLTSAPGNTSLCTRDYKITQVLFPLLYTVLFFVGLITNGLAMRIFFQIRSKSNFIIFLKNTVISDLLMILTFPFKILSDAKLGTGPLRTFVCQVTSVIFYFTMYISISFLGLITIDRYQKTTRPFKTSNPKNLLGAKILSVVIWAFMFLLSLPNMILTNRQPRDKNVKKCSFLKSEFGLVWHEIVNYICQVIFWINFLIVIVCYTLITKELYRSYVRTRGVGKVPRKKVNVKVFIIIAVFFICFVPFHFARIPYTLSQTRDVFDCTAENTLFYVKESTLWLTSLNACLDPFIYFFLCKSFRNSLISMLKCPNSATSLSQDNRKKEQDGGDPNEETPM

This experiment has as its target T1, P2Y12 receptor (Homo sapiens, UniProt Q9H244).
T1 construct: expressed in transfected cells; host or cells: CHO cells (membranes)
Kind of experiment: Functional inhibition of 2-Me-S-ADP induced P2Y12 signalling (35S-GTPγS binding, membranes from P2Y12 transfected CHO-cells). The settings on record: EC80 of agonist, value given at the end of each example. Type of experiment: biochemical. As to the method:
Functional inhibition of—the P2Y12 receptor can be measured by in vitro assays using cell membranes from P2Y12 transfected CHO-cells, the methodology is indicated below.
Functional inhibition of 2-Me-S-ADP induced P2Y12 signalling: 5 μg of membranes were diluted in 200 μl of 200 mM NaCl, 1 mM MgCl2, 50 mM HEPES (pH 7.4), 0.01% BSA, 30 μg/ml saponin and 10 μM GDP. To this was added an EC80 concentration of agonist (2-methyl-thio-adenosine diphosphate), the required concentration of test compound and 0.1 μCi ^35S-GTPγS. The reaction was allowed to proceed at 30° C. for 45 min. Samples were then transferred on to GF/B filters using a cell harvester and washed with wash buffer (50 mM Tris (pH 7.4), 5 mM MgCl2, 50mM NaCl). Filters were then covered with scintilant and counted for the amount of ^35S-GTPγS retained by the filter. Maximum activity was that determined in the presence of the agonist and minimum activity in the absence of the agonist following subtraction of the value determined for non-specific activity. The effect of compounds at various concentrations was plotted according to the equation
y=A+((B−A)/(1+((C/x)̂D)))
and IC50 estimated where • A is the bottom plateau of the curve i.e. the final minimum y value • B is the top of the plateau of the curve i.e. the final maximum y value • C is the x value at the middle of the curve. This represents the log EC50 value when A+B=100 • D is the slope factor. • x is the original known x values. • Y is the original known y values.
Functional inhibition of 2-Me-S-ADP induced P2Y12 signalling: 5 μg of membranes were diluted in 200 μl of 200 mM NaCl, 1 mM MgCl2, 50 mM HEPES (pH 7.4), 0.01% BSA, 30 μg/ml saponin and 10 μM GDP. To this was added an EC80 concentration of agonist (2-methyl-thio-adenosine diphosphate), the required concentration of test compound and 0.1 μCi ^35S-GTPγS. The reaction was allowed to proceed at 30° C. for 45 min. Samples were then transferred on to GF/B filters using a cell harvester and washed with wash buffer (50 mM Tris (pH 7.4), 5 mM MgCl2, 50 mM NaCl). […]
On the technique in general: GTPγS resists hydrolysis and so accumulates on activated G proteins.
In the case of `CCOC(=O)c1cc(C#N)c(N2CC(C(=O)NS(=O)(=O)Cc3ccccc3F)C2)nc1OC` [Example 21], the IC50 (commonly the concentration that gives 50% inhibition) came to 0.015 µM.
In the case of `CCOC(=O)c1cc(C#N)c(N2CC(C(=O)NS(=O)(=O)Cc3ccccc3)C2)nc1COCc1ccccc1` [Example 35, Ethyl 2-[(benzyloxy)methyl]-6-{3-[(benzylsulfonyl)carbamoyl]azetidin-1-yl}-5-cyanonicotinate] it was 0.089 µM; in that of `CCOC(=O)c1cc(C#N)c(N2CCC(C(=O)NS(=O)(=O)c3ccccc3)CC2)nc1OC` [Example 7, Ethyl 5-cyano-2-methoxy-6-{4-[(phenylsulfonyl)carbamoyl]piperidin-1-yl}nicotinate], 0.134 µM.
